These results are taken from patent US20250161253A1, “NUTRITIONAL PRODUCT” (VITAFLO (INTERNATIONAL) LTD, priority 2012, published 2025).

Experiment [1] concerns SH-SY5Y cells. In words: electron microscopy analysis of mitochondrial density and morphology in SH-SY5Y cells. The experiment is classed as cell-based, human. The following applies: 250 μM, p<0.002. The method, then: Additionally, SH-SY5Y cells were prepared for electron microscopy (EM) analysis to assess mitochondrial density and morphology following treatment with decanoic acid.

Experiment [2] relates to SH-SY5Y cells. The experiment in a line: citrate synthase activity in SH-SY5Y cells (marker of mitochondrial enrichment). The experiment is classed as cell-based, human. The following applies: 6 days; for effect on citrate synthase activity compared to control cells (in words): 50-300 μM. As for the experimental part:
Mitochondrial enrichment was estimated by evaluation of citrate synthase activity (corrected for total cellular protein content). This enzyme is localised at the mitochondria, comprises part of the TCA cycle and is commonly used as a marker of mitochondrial enrichment. A human neuroblastoma cell line (SH-SY5Y) was utilised throughout this study, except where stated. In brief, cells were exposed to a range (50-300 μM, dissolved in 0.5% DMSO) of either octanoic or decanoic acid concentrations. After 6 days, the cells were harvested and citrate synthase activity was determined. Activity was expressed as nmol/min/mg of cellular protein.

In experiment [3] the test system is SH-SY5Y cells. In words: Complex I activity in SH-SY5Y cells. The conditions noted are these: 250 μM, 6 days. The class given is cell-based, human. The method, then: In order to gain further independent insight into mitochondrial function, the activity of the respiratory chain enzyme, Complex I, was also evaluated. In a second experiment, cells were exposed to decanoic acid (250 μM, dissolved in 0.5% DMSO) for 6 days. The cells were subsequently harvested, and the activity of Complex I was determined. Each experiment was repeated 5 times, and the activity was expressed as nmol/min/mg of cellular protein.

The test system of experiment [4] is primary human fibroblasts. In words: citrate synthase activity in primary human fibroblasts. The class given is cell-based. The following applies: 250 μM, 6 days. As for the experimental part:
Finally, the effect of decanoic acid was validated in an independent cell line. Primary cultures of human fibroblasts were exposed to decanoic acid at a concentration of 250 μM for 6 days. Following the incubation, citrate synthase activity was again assessed.

`CCCCCCCCCC(=O)O` [Decanoic Acid, decanoic acid]: the “number of mitochondria per cell (EM)” value with SH-SY5Y cells [1] is given as “significant (p<0.002) increase”. In the experiment on SH-SY5Y cells [2] (250 μM, maximum, p<0.001), the “increase in citrate synthase activity compared to control cells” value is 30%. In the experiment on SH-SY5Y cells [2] (250 μM, n = 8, control 105 ± 5), the citrate synthase activity is reported as 137 ± 5 nmol/min/mg cell protein. In addition, the “effect on citrate synthase activity compared to control cells (in words)” value in the experiment on SH-SY5Y cells [2] was “dose dependent”. In addition, in the experiment on SH-SY5Y cells [3] (p<0.002), the “Complex I activity with respect to control” value is “significant (p<0.002) increase”. Further, in the experiment on SH-SY5Y cells [3] (p<0.05), the “Complex I activity normalised against citrate synthase activity” value was “significant (p<0.05) increase”. The “increase in citrate synthase activity” value in experiment [4] is recorded as 45%.
For the compound `CCCCCCCC(=O)O` [Octanoic acid, octanoic acid, reference compound], the “effect on citrate synthase activity compared to control cells (in words)” value in the experiment on SH-SY5Y cells [2] is listed as “no effect”.
